PubChem BioAssay AID1259411 (Chemical Carcinogenesis Research Information System (CCRIS), 2018)
Entries after “also recorded” stand apart in the source; their conditions may differ. Activity calls are given as the source filed them. How the calls were made is not given here.

System: rodent carcinogenicity bioassays, tumor incidence
Assay: CCRIS carcinogenicity studies
Outline: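 Archive of carcinogenicity, mutagenicity, tumor promotion and tumor inhibition results drawn from journals, NCI reports and other sources, expert-reviewed; covers 1985-2011 and is no longer updated.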

Cn1c(N)nc2c3cccnc3ccc21
carcinogen call (Species: MONKEY, Strain/Sex: MACAQUE/MALE,FEMALE, Route: GAVAGE, Dose: 0, 10, 20 MG/KG 5/D/WK FOR DURATION OF STUDY (STUDY DURATION: 91 MO), Dose: 0, 10, 20 MG/KG 5/D/WK FOR DURATION OF STUDY (STUDY DURATION: 91 MO), Tumor Site: Type of Lesion: LIVER: HEPATOCELLULAR CARCINOMA): active; positive
carcinogen call (Species: MOUSE, Strain/Sex: B6C3F1/MALE, Route: INTRAPERITONEAL, Dose: 0, 0.625 UMOL IN 35 µL DMSO ON D 1, 8, AND 15 AFTER BIRTH (STUDY DURATION: 8 MO), Tumor Site: Type of Lesion: LIVER: HEPATOCELLULAR ADENOMA): active; positive
carcinogen call (Species: MOUSE, Strain/Sex: B6C3F1/MALE, Route: INTRAPERITONEAL, Dose: 0, 0.625 UMOL IN 35 µL DMSO ON D 1, 8, AND 15 AFTER BIRTH (STUDY DURATION: 12 MO), Tumor Site: Type of Lesion: LIVER: HEPATOCELLULAR ADENOMA): active; positive
carcinogen call (Species: MOUSE, Strain/Sex: B6C3F1/MALE, Route: INTRAPERITONEAL, Dose: 0, 1.25 UMOL IN 35 µL DMSO ON D 1, 8, AND 15 AFTER BIRTH (STUDY DURATION: 8 MO), Tumor Site: Type of Lesion: LIVER: HEPATOCELLULAR ADENOMA): active; positive
carcinogen call (Species: MOUSE, Strain/Sex: B6C3F1/MALE, Route: INTRAPERITONEAL, Dose: 0, 1.25 UMOL IN 35 µL DMSO ON D 1, 8, AND 15 AFTER BIRTH (STUDY DURATION: 12 MO), Tumor Site: Type of Lesion: LIVER: HEPATOCELLULAR ADENOMA, HEPATOCELLULAR CARCINOMA): active; positive
carcinogen call (Species: MOUSE, Strain/Sex: CD-1/FEMALE, Route: INTRAPERITONEAL, ORAL, Dose: 0, 5 µL OF A 14 MG/ML SOLUTION IN DMSO ON DAYS 1, 3, 5, 7, 10, 13, 17, 21, 24 AND 28 OF LIFE THEN 2/WK TO WK 10 FOLLOWED, Tumor Site: Type of Lesion: LIVER: CARCINOMA, LUNG: ADENOMA): active; positive
carcinogen call (Species: MOUSE, Strain/Sex: CD-1/MALE, Route: INTRAPERITONEAL, ORAL, Dose: 0, 5 µL OF A 14 MG/ML SOLUTION IN DMSO ON DAYS 1, 3, 5, 7, 10, 13, 17, 21, 24 AND 28 OF LIFE THEN 2/WK TO WK 10 FOLLOWED, Tumor Site: Type of Lesion: LIVER: CARCINOMA): active; positive
carcinogen call (Species: MOUSE, Strain/Sex: CDF1/FEMALE, Route: ORAL, Dose: 0, 0.03% IN DIET FOR UP TO 675 D (STUDY DURATION: 675 D), Tumor Site: Type of Lesion: LIVER: HEPATOCELLULAR ADENOMA OR CARCINOMA OR HEMANGIOENDOTHELIOMA, FORESTOMACH: PAPILLOMA OR SQUAMOUS CELL CARCINOMA, L, Tumor Site: Type of Lesion: LIVER: HEPATOCELLULAR ADENOMA OR CARCINOMA OR HEMANGIOENDOTHELIOMA, FORESTOMACH: PAPILLOMA OR SQUAMOUS CELL CARCINOMA, L): active; positive
carcinogen call (Species: MOUSE, Strain/Sex: CDF1/MALE, Route: ORAL, Dose: 0, 0.03% IN DIET FOR UP TO 675 D (STUDY DURATION: 675 D), Tumor Site: Type of Lesion: LIVER: HEPATOCELLULAR ADENOMA OR CARCINOMA OR HEMANGIOENDOTHELIOMA, FORESTOMACH: PAPILLOMA OR SQUAMOUS CELL CARCINOMA, L, Tumor Site: Type of Lesion: LIVER: HEPATOCELLULAR ADENOMA OR CARCINOMA OR HEMANGIOENDOTHELIOMA, FORESTOMACH: PAPILLOMA OR SQUAMOUS CELL CARCINOMA, L): active; positive
carcinogen call (Species: MOUSE, Strain/Sex: EU-PIM-1/FEMALE, Route: ORAL, Dose: 0, 0.03% IN DIET FOR 24 WK (STUDY DURATION: 40 WK)): inactive; negative
carcinogen call (Species: MOUSE, Strain/Sex: EU-PIM-1/MALE, Route: ORAL, Dose: 0, 0.03% IN DIET FOR 24 WK (STUDY DURATION: 40 WK)): inactive; negative
carcinogen call (Species: MOUSE, Strain/Sex: NON-TRANSGENIC WILD-TYPE/FEMALE, Route: ORAL, Dose: 0, 0.03% IN DIET FOR 24 WK (STUDY DURATION: 40 WK)): inactive; negative
carcinogen call (Species: MOUSE, Strain/Sex: NON-TRANSGENIC WILD-TYPE/MALE, Route: ORAL, Dose: 0, 0.03% IN DIET FOR 24 WK (STUDY DURATION: 40 WK)): inactive; negative
carcinogen call (Species: MOUSE, Strain/Sex: SEVERE COMBINED IMMUNODEFICIENT/FEMALE, Route: ORAL, Dose: 0, 300 PPM IN THE DIET FOR 78 WK (STUDY DURATION: 78 WK), Tumor Site: Type of Lesion: LIVER: HEPATOCELLULAR CARCINOMA): active; positive
carcinogen call (Species: MOUSE, Strain/Sex: TRANSGENIC EU-PIM-1/FEMALE, Route: ORAL, Dose: 0, 0.03% IN DIET FOR 24 WK (STUDY DURATION: 40 WK)): inactive; negative
carcinogen call (Species: MOUSE, Strain/Sex: TRANSGENIC EU-PIM-1/MALE, Route: ORAL, Dose: 0, 0.03% IN DIET FOR 24 WK (STUDY DURATION: 40 WK)): inactive; negative
carcinogen call (Species: MOUSE, Strain/Sex: WILD-TYPE/FEMALE, Route: ORAL, Dose: 0, 0.03% IN DIET FOR 24 WK (STUDY DURATION: 40 WK)): inactive; negative
carcinogen call (Species: MOUSE, Strain/Sex: WILD-TYPE/MALE, Route: ORAL, Dose: 0, 0.03% IN DIET FOR 24 WK (STUDY DURATION: 40 WK)): inactive; negative
carcinogen call (Species: Mouse, Strain/Sex: Non transgenic rasH2 Wild-type/ Female (10/10)/(15/15), Route: Oral, Dose: 300 ppm in the diet starting at 7 weeks of age (Study duration: 26 weeks)): inactive; negative: although only hyperplasia observed in wild-type mouse, forestomach pa
carcinogen call (Species: Mouse, Strain/Sex: Non transgenic rasH2 Wild-type/ Male (10/10)/(15/15), Route: Oral, Dose: 300 ppm in the diet starting at 7 weeks of age (Study duration: 26 wks)): inactive; negative; although only hyperplasia observed in wild-type mouse, forestomach pa
carcinogen call (Species: Mouse, Strain/Sex: Parp-1+/+ C57BL/6/Male, Route: Oral, Dose: 300 ppm in diet for 60 wk, study duration 60 wk, Tumor Site: Type of Lesion: Spleen: Malignant lymphoma (3/18)): active; positive (no lung adenomas or forestomach papillomas found). parp-1 deficiency (; also recorded: active; positive (however, no lung adenomas or forestomach papillomas found. parp-1 defi
carcinogen call (Species: RAT, Strain/Sex: F344/MALE, Route: INTRARECTAL, Dose: 0, 50.5 MG/KG IN 1.7 ML/KG DMSO INFUSED 3/WK FOR 2 MO THEN 2/WK FOR DURATION OF STUDY (STUDY DURATION: 18 MO), Tumor Site: Type of Lesion: COLON: CARCINOMA, SKIN: SEBACEOUS SQUAMOUS CELL CARCINOMA): active; positive
carcinogen call (Species: RAT, Strain/Sex: SPRAGUE-DAWLEY/FEMALE, Route: GAVAGE, Dose: 0, 0.35 MMOL/KG BW IN 0.25 ML OF 5% EMULPHOR IN WATER 3/WK FOR WK 1-4 THEN 2/WK FOR WK 5-8 FOLLOWED BY 1/WK FOR 23 WK (S, Tumor Site: Type of Lesion: MAMMARY GLAND: CARCINOMA, LIVER: TUMOR, EAR DUCT: TUMOR, Tumor Site: Type of Lesion: MAMMARY GLAND: CARCINOMA, LIVER: TUMOR, EAR DUCT: TUMOR): active; positive
carcinogen call (Species: RAT, Strain/Sex: WISTAR/MALE, Route: INTRAGASTRIC, Dose: 0, 10 MG/KG IN ACIDIFIED WATER 1/D FOR 2 WK (STUDY DURATION: 58 WK)): inactive; negative

CCCCN(N=O)C(CCC)OO (stereo not given)
carcinogen call (Species: RAT, Strain/Sex: F344/MALE, Route: SUBCUTANEOUS, Dose: 38 UMOL/KG IN OLIVE OIL 1/WK FOR 10 WK, Tumor Site: Type of Lesion: INJECTION SITE: MALIGNANT FIBROUS HISTIOCYTOMA): active; positive

NC[N+](=O)[O-]
carcinogen call (Species: RAT, Strain/Sex: BDVI/FEMALE, Route: GAVAGE, Dose: 0, 38, 76 MG/KG 1/WK FOR DURATION OF STUDY (STUDY DURATION: LIFETIME), Dose: 0, 38, 76 MG/KG 1/WK FOR DURATION OF STUDY (STUDY DURATION: LIFETIME), Tumor Site: Type of Lesion: SPINAL CORD: NEURINOMA, SPINAL NERVES: NEURINOMA): active; positive
carcinogen call (Species: RAT, Strain/Sex: BDVI/MALE, Route: GAVAGE, Dose: 0, 38, 76 MG/KG 1/WK FOR DURATION OF STUDY (STUDY DURATION: LIFETIME), Dose: 0, 38, 76 MG/KG 1/WK FOR DURATION OF STUDY (STUDY DURATION: LIFETIME), Tumor Site: Type of Lesion: SPINAL CORD: NEURINOMA, SPINAL NERVES: NEURINOMA): active; positive

O=C(O)[C@H]1O[C@@H](Nc2ccc3c(c2)Cc2ccccc2-3)[C@H](O)[C@@H](O)[C@@H]1O
carcinogen call (Species: RAT, Strain/Sex: F344/MALE, Route: INJECTION, Dose: 0;1 UMOL IN 0.5 ML OF SOLUTION CONTAINING 0.4 ML PHOSPHATE BUFFERED SALINE/ GENTAMYCIN (PH 7) AND 0.1 ML DMSO INJECTED I): inactive; negative

Cn1cc(C(=O)O)c(=O)c2ccc(/C=C/c3ccc([N+](=O)[O-])o3)nc21
carcinogen call (Species: MOUSE, Strain/Sex: ICR/MALE, Route: ORAL, Dose: 0, 0.012% IN DIET FOR 14 WK (STUDY DURATION: 53 WK), Tumor Site: Type of Lesion: FORESTOMACH: SQUAMOUS CELL CARCINOMA, SQUAMOUS CELL PAPILLOMA, LUNG: PAPILLARY ADENOCARCINOMA): active; positive

CC(C)(Oc1ccc(C2CC2(Cl)Cl)cc1)C(=O)O (stereo not given)
carcinogen call (Species: RAT, Strain/Sex: F344/MALE, Route: ORAL, Dose: 10 MG/KG IN DIET FOR 60 WK, Tumor Site: Type of Lesion: LIVER: HEPATOCELLULAR CARCINOMA): active; positive
